From US9943525B2, “Composition for reducing cell senescence comprising Rho-kinase inhibitor and use thereof” (Samsung Electronics Co., Ltd., priority 2014, dated 2018)

Experiments:
[1] = system: senescent fibroblasts (after 37 cell passages); test: lipofuscin autofluorescence by flow cytometry; assay type: cell-based, human; conditions: 4 weeks, vs control, p<0.05, FIG. 9
Method: In addition, amounts of lipofuscin accumulated in the cultured cells were measured. Senescent cells (After 37 cell passages) were cultured for 4 weeks in a 5% CO2 incubator at 37° C. in the presence of 5 μM of Y-27632, 5 μM of FASUDIL, and 0.5 μM of SR3677. The culture media were changed at every 4 days with new culture media supplemented with 5 μM of Y-27632, 5 μM of FASUDIL, and 0.5 μM of SR3677. Since lipofuscin has autofluorescence characteristics, light having a wavelength of 488 nm was irradiated to the cells by using a FACSCaliber (Beckton Dickinson) and light emission at 520 nm was measured. The results are analyzed using a Cell Quest 3.2 software (Beckton Dickinson). FIG. 9 is a graph displaying amounts of lipofuscin in fibroblasts (after 37 cell passages) cultured in the presence of Rho-kinase inhibitors Y-27632 (5 μM), Fasudil (5 μM), and SR3677 (0.5 μM). […] In FIG. 9, * indicates statistically significant (p<0.05).

[2] = system: senescent fibroblasts (after 37 cell passages); test: mitochondrial ROS (MitoSOX) by flow cytometry; assay type: cell-based, human; conditions: vs control, p<0.05, FIG. 10
Method: In addition, damage of mitochondria was identified by measuring reactive oxygen species (ROS) and mitochondrial membrane potentials which are well known in the art. ROS were measured using a 0.2 μM MitoSOX (Invitrogen, M3608) according to manufacturer's manuals. Light having a wavelength of 520 nm was irradiated to the cells using a FACSCaliber (Beckton Dickinson), and light emission was measured at 580 nm. The results were analyzed using a Cell Quest 3.2 software (Beckton Dickinson). […] In FIG. 10, * indicates statistically significant (p<0.05).

[3] = system: senescent myoblasts (11 cell passages); test: mitochondrial membrane potential (JC-1) by flow cytometry; assay type: cell-based, Human; conditions: vs control, p<0.05, FIG. 16
Method: Myoblast cell lines (Human Skeletal Muscle Myoblasts, Lonza CC-2580 LOT:0000387550) were cultured in SkBM™-2 Basal Media (Lonza CC-3246) including an SkGM™-2 SingleQuots™ Kit (Lonza CC-3244) on plates coated with Collagen Type I (Greiner Bio One, 658950) in a 5% CO2 incubator at 37° C. Subculture was initiated when the cells were approximately 85% confluent in plates. Early subcultures were performed at a split ratio of 1:4, and later subcultures were performed at a split ratio of 1:2. When cell doubling time was 14 days, the cells were regarded as senescent myoblasts (cell passages 10 to 12).
(§1) Senescent cells were seeded on each well of a 6-well plate coated with Collagen Type I (Greiner Bio One, 657950) in a concentration of 2,000 cells/well. Senescent myoblasts (passage 11) were cultured in the presence of 5 μM of Y-27632, 5 μM of FASUDIL, and 0.5 μM of SR3677 for 4 weeks in a 5% CO2 incubator at 37° C. The culture media were changed at every 4 days with new culture media supplemented with 5 μM of Y-27632, 5 μM of FASUDIL, and 0.5 μM of SR3677. A negative control group was prepared in the same manner, except that 0.05 (v/v) % of DMSO was used.
(§2) Mitochondrial membrane potentials were measured using a MitoProbe™ JC-1 Assay kit for Flow Cytometry (Life technologies, T3168) according to manufacturer's manuals. JC-1 is accumulated in mitochondria in a potential-dependent manner, and this accumulation is identified by fluorescence emission shift from green (about 529 nm) to red (about 590 nm). As a result, mitochondrial depolarization is identified by a decrease in a red/green fluorescence ratio. The mitochondrial membrane potentials were measured by excitation at 488 nm using a FACSCaliber (Beckton Dickinson) and using a flow cytometer by using 530/30 nm and 585/42 nm band pass filters. The results were analyzed using Cell Quest 3.2 software (Beckton Dickinson).

[4] = system: senescent progeric fibroblasts (cell passage 17); test: as above; assay type: cell-based, human; conditions: vs control, p<0.05, FIG. 20
Method: Progeric fibroblasts (Hutchinson-Gilford Progeria Syndrome Skin Fibroblasts, Coriell Cell Repositories, AG03198 B) were cultured in Dulbecco's Modified Eagle's Media (DMEM) supplemented with 10% fetal bovine serpm (FBS) and 100 unit/ml of penicillin, and 100 μg/ml of streptomycin (two antibiotics are purchased from Gibro-BRL and Grand Island, N.Y.) in a 5% CO2 incubator at 37° C. Subculturing was initiated when the cells were approximately 85% confluent in plates. Early subcultures were performed at a split ratio of 1:4, and later subcultures were performed at a split ratio of 1:2. When cell doubling time was 14 days, the cells were regarded as senescent progeric fibroblasts (cell passages 16 to 17).
as §1, with “The senescent progeric fibroblasts (cell passage 17)” for “Senescent cells”, “plate” for “plate coated with Collagen Type I (Greiner Bio One, 657950)”, “cells/well and” for “cells/well. Senescent myoblasts (passage 11) were”
as §2, with “Dickinson). FIG. 20 is a graph displaying action potentials of mitochondria. […] In FIG. 20, * indicates statistically significant (p<0.05). […]” for “Dickinson).”

O=S(=O)(c1cccc2cnccc12)N1CCCNCC1 [FASUDIL, 5-(1,4-diazepane-1-sulfonyl)isoquinoline]
amounts of lipofuscin in cells ([1]; 5 μM): significantly reduced | ROS ([2]; 5 μM): significantly reduced | action potentials of mitochondria (mitochondrial membrane potential) ([3]; 5 μM): significantly increased | action potentials of mitochondria (mitochondrial membrane potential) ([4]; 5 μM): significantly increased

CN(C)CCOc1cc(-c2cn[nH]c2)ccc1NC(=O)C1COc2ccccc2O1 (stereo not drawn) [SR3677]
amounts of lipofuscin in cells ([1]; 0.5 μM): significantly reduced | ROS ([2]; 0.5 μM): significantly reduced | action potentials of mitochondria (mitochondrial membrane potential) ([3]; 0.5 μM): significantly increased | action potentials of mitochondria (mitochondrial membrane potential) ([4]; 0.5 μM): significantly increased

C[C@@H](N)[C@H]1CC[C@H](C(=O)Nc2ccncc2)CC1 [Y-27632, (1R,4R)-4-((R)-1-aminoethyl)-N-(pyridin-4-yl)cyclohexanecarboxamide]
amounts of lipofuscin in cells ([1]; 5 μM): significantly reduced | ROS ([2]; 5 μM): significantly reduced | action potentials of mitochondria (mitochondrial membrane potential) ([3]; 5 μM): significantly increased | action potentials of mitochondria (mitochondrial membrane potential) ([4]; 5 μM): significantly increased
